Key:
palmer pigweed = experiment: Test E preemergence; format: in vivo, Amaranthus palmeri; conditions: for Pigweed, Palmer plant response rating: scale 0 to 100 (0 no effect, 100 complete control)
In short: (§1)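 Response was scored visually on a 0-100 scale (100 = complete control) versus controls after 14 to 21 days in the greenhouse. Test chemicals, formulated with surfactant in a non-phytotoxic solvent mixture, had been applied preemergence to seeds in silt loam soil or postemergence to 1- to 4-leaf plants in potting medium.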

ragweed = experiment: Test E preemergence; format: in vivo, Ambrosia elatior; conditions: for Ragweed plant response rating: scale 0 to 100 (0 no effect, 100 complete control)
In short: as §1

kochia = experiment: Test E preemergence; format: in vivo, Kochia scoparia; conditions: for Kochia plant response rating: scale 0 to 100 (0 no effect, 100 complete control)
In short: as §1

morningglory = experiment: Test E preemergence; format: in vivo, Ipomoea coccinea; conditions: for Morningglory plant response rating: scale 0 to 100 (0 no effect, 100 complete control)
In short: as §1

ducksalad = experiment: Test C flooded paddy test; format: in vivo, Heteranthera limosa; conditions: Flood, scale 0 to 100 (0 no effect, 100 complete control), 13 to 15 days
In short: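 Compound was added to standing water 3 cm above soil, flood maintained, and plants held in a greenhouse before visual scoring against controls at 13 to 15 days.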

Brazilian crabgrass = experiment: Test E preemergence; format: in vivo, Digitaria horizontalis; conditions: for Crabgrass, Brazil plant response rating: scale 0 to 100 (0 no effect, 100 complete control)
In short: as §1

johnsongrass = experiment: Test E preemergence; format: in vivo, Sorghum halepense; conditions: for Johnsongrass plant response rating: scale 0 to 100 (0 no effect, 100 complete control)
In short: as §1

Italian ryegrass = experiment: Test A preemergence; format: in vivo, Lolium multiflorum
In short: (§2)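 Greenhouse pot test, loam/sand soil. Formulation: non-phytotoxic solvent mix plus surfactant. Pre: directed spray onto soil after sowing. Post: plants at 1–2 leaf, 2–10 cm. Rated visually vs untreated controls at ~10 d, 0 (no effect) to 100 (complete control).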

blackgrass = experiment: Test A postemergence; format: in vivo, Alopecurus myosuroides; conditions: 0 to 100 scale where 0 is no effect and 100 is complete control
In short: as §2

[1] = 125 g ai/ha, scale 0 to 100, 0 no effect, 100 complete control
[2] = 250 g ai/ha, scale 0 to 100, 0 no effect, 100 complete control
[3] = 8 g ai/ha, scale 0 to 100, 0 is no effect, 100 is complete control

Row | Structure (SMILES) | Pigweed, Palmer plant response rating (palmer pigweed; 31 g ai/ha) | Pigweed, Palmer plant response rating (palmer pigweed; 62 g ai/ha) | Plant response rating, Pigweed, Palmer (palmer pigweed; [1]) | Ragweed plant response rating (ragweed; 31 g ai/ha) | Ragweed plant response rating (ragweed; 62 g ai/ha) | Plant response rating, Ragweed (ragweed; [1]) | Kochia plant response rating (kochia; 31 g ai/ha) | Kochia plant response rating (kochia; 62 g ai/ha) | Plant response rating, Kochia (kochia; [1]) | Morningglory plant response rating (morningglory; 31 g ai/ha) | Morningglory plant response rating (morningglory; 62 g ai/ha) | Plant response rating, Morningglory (morningglory; [1]) | Plant response rating, Ducksalad (ducksalad; 62 g ai/ha) | Plant response rating, Ducksalad (ducksalad; 125 g ai/ha) | Plant response rating, Ducksalad (ducksalad; 250 g ai/ha) | Crabgrass, Brazil plant response rating (Brazilian crabgrass; 31 g ai/ha) | Crabgrass, Brazil plant response rating (Brazilian crabgrass; 62 g ai/ha) | Plant response rating, Crabgrass, Brazil (Brazilian crabgrass; [1]) | Johnsongrass plant response rating (johnsongrass; 31 g ai/ha) | Johnsongrass plant response rating (johnsongrass; 62 g ai/ha) | other results
1 | CCOc1cnn(-c2c(C#N)cccc2Oc2ncc(F)cn2)c1 [Compound 89] | 0 | 0 | 40 | 65 | 80 | 80 | 60 | 75 | 100 | 30 | 65 | 75 | 0 | 65 | 80 | 20 | 90 | 100 | 0 | 10 | Plant response rating, Pigweed, Palmer (palmer pigweed; [2]): 100; Plant response rating, Ragweed (ragweed; [2]): 90; Plant response rating, Kochia (kochia; [2]): 100; Plant response rating, Morningglory (morningglory; [2]): 100; Plant response rating, Crabgrass, Brazil (Brazilian crabgrass; [2]): 100; Plant response rating, Johnsongrass (johnsongrass; [1]): 50; Plant response rating, Johnsongrass (johnsongrass; [2]): 100; Plant response rating, Ryegrass, Italian (Italian ryegrass; 125 g ai/ha, 0 to 100 scale where 0 is no effect and 100 is complete control): 0; Ryegrass, Italian plant response rating (Italian ryegrass; 500 g ai/ha, 0 to 100 scale, 0 no effect, 100 complete control, approx. 10 days): 10; Plant response rating, Blackgrass (blackgrass; 125 g ai/ha): 40; Plant response rating, Blackgrass (blackgrass; 500 g ai/ha): 90
2 | FC(F)(F)c1cnn(-c2c(Cl)cccc2Oc2ncc(Cl)cn2)c1 [Compound 167] | 0 | 98 | 100 | 15 | 35 | 35 | 40 | 65 | 90 | 25 | 40 | 65 | 50 | 60 | 80 | 20 | 75 | 100 | 10 | 30 | Plant response rating, Ducksalad (ducksalad; 31 g ai/ha): 0; Crabgrass, Brazil plant response rating (Brazilian crabgrass; 16 g ai/ha): 0; Plant response rating, Johnsongrass (johnsongrass; [1]): 70
3 | Fc1cccc(Oc2ncc(Cl)cn2)c1-n1cc(I)cn1 [Compound 179] |  | 100 | 100 |  | 0 | 0 |  | 25 | 75 |  | 10 | 30 | 60 | 85 | 95 |  | 65 | 100 |  | 20 | Plant response rating, Pigweed, Palmer (palmer pigweed; [3]): 0; Plant response rating, Ragweed (ragweed; [3]): 0; Plant response rating, Kochia (kochia; [3]): 0; Plant response rating, Morningglory (morningglory; [3]): 0; Plant response rating, Ducksalad (ducksalad; 31 g ai/ha): 20; Plant response rating, Crabgrass, Brazil (Brazilian crabgrass; [3]): 0; Crabgrass, Brazil plant response rating (Brazilian crabgrass; 16 g ai/ha): 0; Plant response rating, Johnsongrass (johnsongrass; [3]): 0; Plant response rating, Johnsongrass (johnsongrass; [1]): 25
4 | FC(F)c1cccc(Oc2ncc(Cl)cn2)c1-n1cc(Br)cn1 [Compound 194, 2-[2-(4-bromo-1H-pyrazol-1-yl)-3-(difluoromethyl)phenoxy]-5-chloropyrimidine] | 98 | 100 |  | 0 | 20 |  | 5 | 35 |  | 0 | 0 |  | 80 | 90 | 100 | 65 | 98 |  | 0 | 50 | Plant response rating, Ducksalad (ducksalad; 31 g ai/ha): 65
